Measurements from US8288390B2, “Benzofuran derivatives” (Takeda Pharmaceutical Company Limited, priority 2009, dated 2012).

What was measured:
[1] = tested on: Akt protein; experiment: Activity of inhibiting Akt protein degradation in rat mixed glial culture; type: cell-based; conditions: compound 1 μM + rhIGF-1 100 ng/ml, 10 minutes at 37° C.; Akt calibrated with ERK; no addition = 100%, rhIGF-1 only = 0%
Protocol: The mixed glial cells used in the Test example 1 were seeded on a 6-well plate coated with collagen Type I (manufactured by Asahi Techno Glass Co., Ltd.) to 4×10^6 cells/well. Under the condition of 37° C. and 5% CO2, the cells were cultured for four days in a growth medium (D-MEM/F12 with 10% FBS, comprising PS). After that, the medium was exchanged with a serum-free medium (D-MEM/F12, comprising PS) and the cells were subjected to starvation for 4 hours under the condition of 37° C. and 5% CO2.
Next, rhIGF-1 (R&D Systems, 291-G1-250, final concentration 100 ng/ml) and the compound were added to obtain 1 μM and reacted in a water bath incubator at 37° C. for 10 minutes. Culture supernatant was aspirated off, 150 μL of RIPA (50 mM Tris-HCl pH7.5, 5 mM EDTA, 100 mM NaCl, 30 mM NaF, 5 mM sodium diphosphate, 137 mg/l pepstatin A, 2.5 KIU/l aprotinin, 1% NP-40, 6 mM sodium deoxycholate, 1 μM microcystinLR, 1 μM Z-Leu-Leu-Nva-H(aldehyde), 48 μM leupeptin, 96 μM 4-(2-aminoethyl)benzenesulfonyl fluoride-HCl, 1 mM sodium orthovanadate) was added thereto, and the reaction was terminated. After the termination of the reaction, the cell lysate was recovered by using a cell scraper on ice. Finally, the cell lysate was centrifuged for 30 minutes at 15000 rpm and the supernatant was taken as a cell extract.
Proteins were recovered from the cell extract by using trichloroacetic acid, and quantified according to Lowry method. Standard curve was established with bovine serum albumin. Based on the measured values, each cell extract was diluted with RIPA to prepare it in constant concentration (10 μg/lane). SDS-PAGE was carried out under reducing condition using 10% acrylamide (45 mA, 1.5 hours). After transferring to a PVDF membrane (0.13 A, 1 hour), reaction with an antibody was carried out. As a primary antibody, Akt (Cell Signaling, 9272) and ERK (Santa Cruz, sc-94) were used with the dilution ratio of 1000. As a secondary antibody, HRP-labeled anti-rabbit antibody (NA9340V, manufactured by Amersham) was used with the dilution ratio of 12500. Then, using ImmunoStar reagent (291-55203, manufactured by Wako Pure Chemical Industries, Ltd.), X-ray film detection was carried out. Quantification of the results was carried out by using GS-800 Calibrated Densitometer (manufactured by BioRad), and then the band strength was converted into the numerals by multiplying the absorbance originating from bands of Akt and ERK-1&2 by the area. Akt was calibrated with ERK to give the numeral values.
Inhibitory activity on Akt degradation was expressed as inhibition ratio. Specifically, the case in which neither the compound nor rhIGF-1 was added (no addition) is 100% and the case in which only rhIGF-1 was added is 0%, and then with the value measured from compound+rhIGF-1, the inhibition ratio was obtained. Inhibition ratio(%)=[(compound+rhIGF-1)−(rhIGF-1)]÷[(no addition)−(rhIGF-1)]×100

[2] = tested on: Tg2576 transgenic mice; experiment: Amelioration of cognitive function in novel object recognition test; type: in vivo, mouse; conditions: female Tg2576 mice, 10 mg/kg/day orally once a day for 3 weeks; retention 24 hours after training; recovery ratio vs vehicle Tg2576 and wild type
Protocol: Female Tg2576 transgenic mice and wild-type littermates were used at 8-9 months old. All animals were housed in room maintained at 24±1° C. with a 12-h light/dark cycle. Lights on 7:00 a.m. Food chows (Oriental Yeast Co. Tokyo, Japan) and tap water were provided ad libitum.
The compounds (10 mg/kg/day) or vehicle (0.5% methylcellulose, Wako Pure Chemical Industries Limited, Osaka, Japan) was orally administered to the mice once a day for 3 weeks. After the gavages, the novel object recognition test was performed. The test procedure consisted of three sessions: habituation, training, and retention. In the training and retention sessions, observer was not informed of the group name or animal number (blind method). 4-5 mice were habituated to the box (30×30×30 high cm), with 30 minutes of exploration in the absence of objects (habituation session). During the training session, two objects were placed in the back corner of the box. A mouse was then placed at another corner of the box and the total time spent exploring the two objects was recorded for 5 minutes. During the retention session, animals were placed back into the same box 24 hours after the training session, in which one of the familiar objects used during training was replaced with a novel object. The animals were then allowed to explore freely for 5 minutes and the time spent exploring each object was recorded. Throughout the experiments, the objects were used in a counterbalanced manner in terms of an environmental effect, their physical complexity and emotional neutrality. A preference index (PI), a ratio of the amount of time spent exploring the novel object over the total time spent exploring both objects, was used to measure cognitive function. Furthermore, recovery ratio was calculated by following formula; [Recovery ratio]=[[PI of Tg2576 mice treated by each compound]−[PI of Tg2576 mice treated by vehicle]]/[[PI of wild type mice]−[PI of Tg2576 mice treated by vehicle]].×100(%)

[3] = tested on: rat mixed glial culture; experiment: Activity of promoting neuronal neogenesis in rat mixed glial culture; type: cell-based; conditions: Rattus norvegicus, 72 h, compound 1 μM + rhIGF-1 100 ng/ml, 3 days culture; absorbance at 450 nm (class III beta-tubulin antibody); control rhIGF-1 only = 100%; read-out: Increase Ratio of the Absorbance (% control)
Protocol: From a three-day old SD rat, hippocampus and cerebral cortex were removed. By using a kit of dispersion liquid for neuronal cells (MB-X9901, manufactured by SUMITOMO BAKELITE CO., LTD.), cell suspension was prepared and then seeded on a 96-well plate coated with collagen Type I (4860-010, manufactured by Asahi Techno Glass Co., Ltd.) to 10^5 cells/well. Under the condition of 37° C. and 5% CO2, the cells were cultured for four days in a growth medium (D-MEM/F12 with 10% FBS, comprising PS).
After culturing, the medium was exchanged with a medium for differentiation (D-MEM/F12, comprising PS), added with rhIGF-1 (R&D Systems, 291-G1-250, final concentration of 100 ng/ml) and the compound to 1 μM, followed by further culture for three days. Cultured cells were fixed with 4% paraformaldehyde-PBS (manufactured by MUTO PURE CHEMICALS CO., LTD.) and subjected to membrane penetration using 0.1% Triton X-100 PBS, followed by blocking with Block Ace solution (UK-B80, manufactured by Dainippon Sumitomo Pharma Co., Ltd.). As a primary antibody, Anti-neuron-specific class III beta-tubulin antibody (R&D Systems, MAB1195, clone Tuj-1) was used after 1000× dilution. As a secondary antibody, Anti-Mouse Ig, HRP-Linked F (ab′) 2 Fragment Sheep (Amersham Biosciences, NA9310) was used after 10000× dilution. For washing process, the plate washer (BIO-TEK INSTRUMENTS ELX405) was used. For a chromogenic reaction, the reaction was carried out for 10 minutes using TMB Microwell Peroxidase Substrate System (Kirkegaard & Perry Laboratories, 50-76-00), followed by terminating the reaction according to the addition of 1M phosphoric acid. By using the plate reader (Labsystems Multiskan BICHROMATIC), absorbance at 450 nm was measured.
The absorbance for the case in which no compound is added (i.e., control, rhIGF-1 only) was 100%, and the increase ratio of the absorbance for the compound addition (i.e., compound+rhIGF-1) compared to the control was obtained as % control. Activity of the each compound for promoting neuronal differentiation that is measured according to the above method is summarized in Table 9 and Table 10.

Row | Compound | Inhibition of Akt degradation (%) [1] [%] | Preference index (% recovery) [2] [% recovery] | activity at 1 µM [3] [%] | melting point [°C]
1 | COc1ccc(N2CCN(c3c(C)c(C)c4c(c3C)C[C@H](C)O4)CC2)cc1 [Example 22, 1-(4-Methoxyphenyl)-4-[(2S)-2,4,6,7-tetramethyl-2,3-dihydro-1-benzofuran-5-yl]piperazine] | 73.9 | 76.9 | 389 | 
2 | COc1ccc(N2CCN(c3c(C)c4c(c(OC)c3C)OC(C)(C)C4)CC2)cc1 [Example 47, 1-(4-Methoxyphenyl)-4-(7-methoxy-2,2,4,6-tetramethyl-2,3-dihydro-1-benzofuran-5-yl)piperazine] | 55.2 | 82.2 | > 500 | 
3 | Cc1c(C)c(N2CCN(c3ccnc(Cl)n3)CC2)c(C)c2c1OC(C)(C)C2 [Example 82, 2-Chloro-4-[4-(2,2,4,6,7-pentamethyl-2,3-dihydro-1-benzofuran-5-yl)piperazin-1-yl]pyrimidine] |  |  |  | 192 to 193
4 | COc1ccc(N2CCN(c3c(C)c(C)c4c(c3C)CC(C)(C)O4)CC2)cc1 [Example 17, 1-(4-Methoxyphenyl)-4-(2,2,4,6,7-pentamethyl-2,3-dihydro-1-benzofuran-5-yl)piperazine] | 73.3 | 70.9 | 216 | 
